Reference: patent US8822440B2, “Inhibiting cyclin D polypeptides” (Mayo Foundation for Medical Education and Research, priority 2006, dated 2014)
“And” between values parts separate entries of the source, which are not always exact repeats. Equal values may be shown once.

Columns and labels:
[1] = system: 8226 tumors; assay: 8226 myeloma xenograft in nude mice; type: in vivo
Experimental: FIG. 14. Kinetin riboside induces tumor growth arrest in My5 and 8226 myeloma tumor xenografts. (A) Matched pairs of nude mice bearing My5 tumors were treated intra-peritoneally (i.p.) with vehicle control (□) or with kinetin riboside (▪) at escalating dose-density from 100 mg/kg once daily to 85mg/kg 5×/daily, administered 5 days per week, commencing after mean tumor volume reached 135mm^3. Mean tumor volumes±SEM are shown from the time of xenografting (n=4/group). […]
Female nude X-linked immune-deficient (BNX) mice purchased from NCI-Frederick were used for in vivo studies. Animals had access to food and water ad libitum and were handled in accordance with animal care and use guidelines. Eight-week-old mice were inoculated with My5 or 8226 (2×10^7) MM cells subcutaneously (s.c.) in the right flank. Kinetin riboside (pre-dissolved in DMSO at 500 mg/mL and stored at −20° C.) was formulated daily by dropwise dissolution to 3.7 mg/mL in pre-warmed (37° C.) 0.9% saline, 1% β2-hydroxypropylcyclodextrin (Sigma) solution and was administered 1×-5× daily at 85 mg/kg/dose. The first dose daily was given intraperitoneally and remaining doses were given s.c. with increasing dosing intervals (30, 60, 120, 180 minutes). Tumor volumes were measured using vernier calipers and calculated with the formula L×W×H×2/3. P-values were calculated by paired t-test (JMP 6.0, SAS; Cary, N.C.).

[2] = system: CD138+ myeloma cells; assay: Unsorted myeloma patient bone marrow, flow cytometry: CD138+ myeloma cells; type: cell-based, human
Experimental: Flow cytometry. HMCL were treated as indicated and then washed in cold phosphate-buffered saline (PBS) and resuspended in buffer containing AnnexinV-FITC and propidium iodide (BD Biosciences, San Jose, Calif.) for 15 minutes at room temperature. Cells (10^5) were subsequently diluted and analyzed immediately by flow cytometry (FACScan, BD Biosciences, San Jose, Calif.) using CellQuest software. Patient bone marrow specimens were prepared and analyzed in a similar fashion using AnnexinV-FITC and anti-CD138-PE (BD Biosciences, San Jose, Calif.).
As mouse embryos that lack any D-cyclins eventually die from hematopoietic failure (Kozar et al., Cell, 118, 477-91 (2004)), the bone marrow might be predicted to be one of the most sensitive non-malignant tissue to be affected by drugs targeting cyclin D expression. Unsorted bone marrow samples from myeloma patients were treated with kinetin riboside to assess the relative cytotoxicity of this drug on malignant versus non-malignant marrow cells. Bone marrow samples were first processed to remove non-nucleated red cells and were then treated for 48 hours with kinetin riboside (5 μM).

[3] = system: human myeloma cell lines (HMCL); assay: HMCL viability / cytotoxicity (MTT, MTS); type: cell-based; conditions: for IC50: Homo sapiens
Experimental: Subsequent validation studies using selected compounds in human myeloma cell lines (HMCL) confirmed successful suppression of both cyclin D2 and D1 polypeptides. Each of these compounds was then shown to be cytotoxic to a genetically diverse and standardized panel of 14 HMCL in MTT assays: monensin (10-760 nM), camptothecin (5-700 nM), dihydrogambogic acid (250-800 nM), pristimerin (150-500 nM), and kinetin riboside (2.5-20 μM). Cell cycle analysis confirmed induction of G0/G1 phase arrest for most compounds, consistent with cyclin D inhibition.
Viability assay. The effects of screened compounds on cell viability was assessed by 3-(4,5-dimethyl[…])-5-(3-carboxymethoxyphenyl)-2-(4-sulfophenyl)-2-H-tetrazolium (MTS) assay according to the manufacture's instructions (Progmega, Madison, Wis.). MTS reagent (20 μL/well in 96 well plates) was added to cells, and these were then incubated at 37° C. for 4 hours. Absorbance at 490 nm was determined using a 96-well plate reader.

OC[C@H]1O[C@@H](n2cnc3c(NCc4ccco4)ncnc32)[C@H](O)[C@@H]1O [kinetin riboside, N6-Furfuryladenosine]
effect on 8226 tumors compared to vehicle-treated mice ([1]; 85 mg/kg 4× daily upfront, p<0.01): Statistically significant tumor growth inhibition | effect on 8226 tumor growth ([1]; once daily, up to 100 mg/kg/day): no effect | kill of patient CD138+ myeloma cells ([2]; 5 μM, 48 hours): 92% | effect on primary CD138+ myeloma cells ([2]; patient bone marrow, 48 hours): most CD138+ cells become apoptotic | activity against CD138+ myeloma cells compared with non malignant hematopoietic cells ([2]; unsorted myeloma patient bone marrow samples): selective activity | IC50 ([3]; 48 h, 8 out of 12 HMCL): < 1.7 µg/mL and < 5 µM | IC50 ([3]; 48 h, 11/12 HMCL): < 5 µg/mL and < 15 µM | IC50 ([3]; JJN-3, JJN3): ~5 µM | IC50 ([3]; U-266, U266): > 20 µM | cytotoxic concentration across panel of 14 HMCL ([3]; human): 2.5 to 20 µM
